According to ChEMBL document CHEMBL5724806, “Unraveling interindividual differences and functional consequences of gut microbial metabolism of immunosuppressants” (2024):

Columns and labels:
Type in all cases: ADME
[1] = The drug is tested on Bacteroides xylanisolvens strain: HM 722 for biotransformation under anaerobic condition. The drug concentrations were measured over 6 timepoints collected between 0 and 12 hours of incubation by liquid-chromatography-coupled mass spectrometry (LC–MS); set-up: dose 5 uM, timepoint 0, 1.5, 3, 6, 9, 12 hours; conditions: 5 µM
[2] = (§1) The drug is tested on Parabacteroides distasonis strain: DSM20701 for biotransformation under anaerobic condition. The drug concentrations were measured over 6 timepoints collected between 0 and 12 hours of incubation by liquid-chromatography-coupled mass spectrometry (LC–MS); set-up: dose 5 uM, timepoint 0, 1.5, 3, 6, 9, 12 hours; conditions: 5 µM
[3] = The drug is tested on Parabacteroides merdae strain: DSM19495 for biotransformation under anaerobic condition. The drug concentrations were measured over 6 timepoints collected between 0 and 12 hours of incubation by liquid-chromatography-coupled mass spectrometry (LC–MS); set-up: dose 5 uM, timepoint 0, 1.5, 3, 6, 9, 12 hours; conditions: 5 µM
[4] = The drug is tested on Clostridium bolteae strain: DSM15670 for biotransformation under anaerobic condition. The drug concentrations were measured over 6 timepoints collected between 0 and 12 hours of incubation by liquid-chromatography-coupled mass spectrometry (LC–MS); set-up: dose 5 uM, timepoint 0, 1.5, 3, 6, 9, 12 hours; conditions: enterocloster bolteae, 5 µM
[5] = The drug is tested on Clostridium ramosum strain: DSM1402 for biotransformation under anaerobic condition. The drug concentrations were measured over 6 timepoints collected between 0 and 12 hours of incubation by liquid-chromatography-coupled mass spectrometry (LC–MS); set-up: dose 5 uM, timepoint 0, 1.5, 3, 6, 9, 12 hours; conditions: thomasclavelia ramosa, 5 µM
[6] = The drug is tested on Dorea formicigenerans strain: DSM3992 for biotransformation under anaerobic condition. The drug concentrations were measured over 6 timepoints collected between 0 and 12 hours of incubation by liquid-chromatography-coupled mass spectrometry (LC–MS); set-up: dose 5 uM, timepoint 0, 1.5, 3, 6, 9, 12 hours; conditions: 5 µM
[7] = The drug is tested on Eubacterium hallii strain: DSM3353 for biotransformation under anaerobic condition. The drug concentrations were measured over 6 timepoints collected between 0 and 12 hours of incubation by liquid-chromatography-coupled mass spectrometry (LC–MS); set-up: dose 5 uM, timepoint 0, 1.5, 3, 6, 9, 12 hours; conditions: anaerobutyricum hallii, 5 µM
[8] = The drug is tested on Faecalibacterium prausnitzii strain: DSM17677 for biotransformation under anaerobic condition. The drug concentrations were measured over 6 timepoints collected between 0 and 12 hours of incubation by liquid-chromatography-coupled mass spectrometry (LC–MS); set-up: dose 5 uM, timepoint 0, 1.5, 3, 6, 9, 12 hours; conditions: faecalibacterium duncaniae, 5 µM
[9] = The drug is tested on Gemella haemolysans strain: DSM107751 for biotransformation under anaerobic condition. The drug concentrations were measured over 6 timepoints collected between 0 and 12 hours of incubation by liquid-chromatography-coupled mass spectrometry (LC–MS); set-up: dose 5 uM, timepoint 0, 1.5, 3, 6, 9, 12 hours; conditions: 5 µM
[10] = The drug is tested on Gemella morbillorum strain: DSM20572 for biotransformation under anaerobic condition. The drug concentrations were measured over 6 timepoints collected between 0 and 12 hours of incubation by liquid-chromatography-coupled mass spectrometry (LC–MS); set-up: dose 5 uM, timepoint 0, 1.5, 3, 6, 9, 12 hours; conditions: 5 µM
[11] = The drug is tested on Lactobacillus gasseri strain: DSM20243 for biotransformation under anaerobic condition. The drug concentrations were measured over 6 timepoints collected between 0 and 12 hours of incubation by liquid-chromatography-coupled mass spectrometry (LC–MS); set-up: dose 5 uM, timepoint 0, 1.5, 3, 6, 9, 12 hours; conditions: 5 µM
[12] = The drug is tested on Roseburia intestinalis strain: DSM14610 for biotransformation under anaerobic condition. The drug concentrations were measured over 6 timepoints collected between 0 and 12 hours of incubation by liquid-chromatography-coupled mass spectrometry (LC–MS); set-up: dose 5 uM, timepoint 0, 1.5, 3, 6, 9, 12 hours; conditions: 5 µM
[13] = The drug is tested on Ruminococcus gnavus strain: ATCC29149 for biotransformation under anaerobic condition. The drug concentrations were measured over 6 timepoints collected between 0 and 12 hours of incubation by liquid-chromatography-coupled mass spectrometry (LC–MS); set-up: dose 5 uM, timepoint 0, 1.5, 3, 6, 9, 12 hours; conditions: mediterraneibacter gnavus, 5 µM
[14] = The drug is tested on Streptococcus anginosus strain: DSM20563 for biotransformation under anaerobic condition. The drug concentrations were measured over 6 timepoints collected between 0 and 12 hours of incubation by liquid-chromatography-coupled mass spectrometry (LC–MS); set-up: dose 5 uM, timepoint 0, 1.5, 3, 6, 9, 12 hours; conditions: 5 µM
[15] = The drug is tested on Streptococcus mitis strain: DSM12643 for biotransformation under anaerobic condition. The drug concentrations were measured over 6 timepoints collected between 0 and 12 hours of incubation by liquid-chromatography-coupled mass spectrometry (LC–MS); set-up: dose 5 uM, timepoint 0, 1.5, 3, 6, 9, 12 hours; conditions: 5 µM
[16] = The drug is tested on Streptococcus sanguinis strain: DSM20567 for biotransformation under anaerobic condition. The drug concentrations were measured over 6 timepoints collected between 0 and 12 hours of incubation by liquid-chromatography-coupled mass spectrometry (LC–MS); set-up: dose 5 uM, timepoint 0, 1.5, 3, 6, 9, 12 hours; conditions: 5 µM
[17] = The drug is tested on Akkermansia muciniphila strain: DSM22959 for biotransformation under anaerobic condition. The drug concentrations were measured over 6 timepoints collected between 0 and 12 hours of incubation by liquid-chromatography-coupled mass spectrometry (LC–MS); set-up: dose 5 uM, timepoint 0, 1.5, 3, 6, 9, 12 hours; conditions: 5 µM
[18] = (§2) The drug is tested on Bifidobacterium longum strain: DSM20088 for biotransformation under microaerobic condition. The drug concentrations were measured over 6 timepoints collected between 0 and 12 hours of incubation by liquid-chromatography-coupled mass spectrometry (LC–MS); set-up: dose 5 uM, timepoint 0, 1.5, 3, 6, 9, 12 hours; conditions: 5 µM
[19] = The drug is tested on Gemella morbillorum strain: DSM20572 for biotransformation under microaerobic condition. The drug concentrations were measured over 6 timepoints collected between 0 and 12 hours of incubation by liquid-chromatography-coupled mass spectrometry (LC–MS); set-up: dose 5 uM, timepoint 0, 1.5, 3, 6, 9, 12 hours; conditions: 5 µM
[20] = as §1, with “the gut metagenome community of A-04 with ENA study accession number: PRJEB31790” for “Parabacteroides distasonis strain: DSM20701”, “7” for “6”; set-up: dose 5 uM, timepoint 0, 0.75, 1.5, 3, 6, 9, 12 hours; conditions: 5 µM
[21] = as §1, with “the gut metagenome community of A-06 with ENA study accession number: PRJEB31790” for “Parabacteroides distasonis strain: DSM20701”, “7” for “6”; set-up: dose 5 uM, timepoint 0, 0.75, 1.5, 3, 6, 9, 12 hours; conditions: 5 µM
[22] = as §1, with “the gut metagenome community of A-10 with ENA study accession number: PRJEB31790” for “Parabacteroides distasonis strain: DSM20701”, “7” for “6”; set-up: dose 5 uM, timepoint 0, 0.75, 1.5, 3, 6, 9, 12 hours; conditions: 5 µM
[23] = as §1, with “the gut metagenome community of P-02 with ENA study accession number: PRJEB31790” for “Parabacteroides distasonis strain: DSM20701”, “7” for “6”; set-up: dose 5 uM, timepoint 0, 0.75, 1.5, 3, 6, 9, 12 hours; conditions: 5 µM
[24] = as §1, with “the gut metagenome community of P-03 with ENA study accession number: PRJEB31790” for “Parabacteroides distasonis strain: DSM20701”, “7” for “6”; set-up: dose 5 uM, timepoint 0, 0.75, 1.5, 3, 6, 9, 12 hours; conditions: 5 µM
[25] = as §1, with “the gut metagenome community of T-02 with ENA study accession number: PRJEB31790” for “Parabacteroides distasonis strain: DSM20701”, “7” for “6”; set-up: dose 5 uM, timepoint 0, 0.75, 1.5, 3, 6, 9, 12 hours; conditions: 5 µM
[26] = as §2, with “the gut metagenome community of A-08 with ENA study accession number: PRJEB31790” for “Bifidobacterium longum strain: DSM20088”, “7” for “6”; set-up: dose 5 uM, timepoint 0, 0.75, 1.5, 3, 6, 9, 12 hours; conditions: 5 µM
[27] = as §2, with “the gut metagenome community of A-09 with ENA study accession number: PRJEB31790” for “Bifidobacterium longum strain: DSM20088”, “7” for “6”; set-up: dose 5 uM, timepoint 0, 0.75, 1.5, 3, 6, 9, 12 hours; conditions: 5 µM
[28] = as §2, with “the gut metagenome community of P-04 with ENA study accession number: PRJEB31790” for “Bifidobacterium longum strain: DSM20088”, “7” for “6”; set-up: dose 5 uM, timepoint 0, 0.75, 1.5, 3, 6, 9, 12 hours; conditions: 5 µM
[29] = as §2, with “the gut metagenome community of T-01 with ENA study accession number: PRJEB31790” for “Bifidobacterium longum strain: DSM20088”, “7” for “6”; set-up: dose 5 uM, timepoint 0, 0.75, 1.5, 3, 6, 9, 12 hours; conditions: 5 µM
[30] = as §2, with “the gut metagenome community of T-02 with ENA study accession number: PRJEB31790” for “Bifidobacterium longum strain: DSM20088”, “7” for “6”; set-up: dose 5 uM, timepoint 0, 0.75, 1.5, 3, 6, 9, 12 hours; conditions: 5 µM

| SMILES | Bacterial Biotransformation [1] | Bacterial Biotransformation [2] | Bacterial Biotransformation [3] | Bacterial Biotransformation [4] | Bacterial Biotransformation [5] | Bacterial Biotransformation [6] | Bacterial Biotransformation [7] | Bacterial Biotransformation [8] | Bacterial Biotransformation [9] | Bacterial Biotransformation [10] | Bacterial Biotransformation [11] | Bacterial Biotransformation [12] | Bacterial Biotransformation [13] | Bacterial Biotransformation [14] | Bacterial Biotransformation [15] | Bacterial Biotransformation [16] | Bacterial Biotransformation [17] | Bacterial Biotransformation [18] | Bacterial Biotransformation [19] | Bacterial Biotransformation [20] | further results |
| --- | --- | --- | --- | --- | --- | --- | --- | --- | --- | --- | --- | --- | --- | --- | --- | --- | --- | --- | --- | --- | --- |
| CCOC(=O)[C@H](CCc1ccccc1)N[C@@H](C)C(=O)N1[C@H](C(=O)O)C[C@@H]2CCC[C@@H]21 | Compound NOT metabolized | Compound NOT metabolized | Compound NOT metabolized | Compound NOT metabolized | Compound NOT metabolized | Compound NOT metabolized | Compound NOT metabolized | Compound NOT metabolized | Compound NOT metabolized | Compound NOT metabolized | Compound NOT metabolized | Compound NOT metabolized | Compound NOT metabolized | Compound NOT metabolized | Compound NOT metabolized | Compound NOT metabolized | Compound NOT metabolized | Compound NOT metabolized | Compound NOT metabolized | Compound NOT metabolized | Bacterial Biotransformation [21]: Compound NOT metabolized; Bacterial Biotransformation [22]: Compound NOT metabolized; Bacterial Biotransformation [23]: Compound NOT metabolized; Bacterial Biotransformation [24]: Compound NOT metabolized; Bacterial Biotransformation [25]: Compound NOT metabolized; Bacterial Biotransformation [26]: Compound NOT metabolized; Bacterial Biotransformation [27]: Compound NOT metabolized; Bacterial Biotransformation [28]: Compound NOT metabolized; Bacterial Biotransformation [29]: Compound NOT metabolized; Bacterial Biotransformation [30]: Compound NOT metabolized |
| CC(C)NCC(O)COc1ccc(CC(N)=O)cc1 (stereo not given) [ATENOLOL] | Compound NOT metabolized | Compound NOT metabolized | Compound NOT metabolized | Compound NOT metabolized | Compound NOT metabolized | Compound NOT metabolized | Compound NOT metabolized | Compound NOT metabolized | Compound NOT metabolized | Compound NOT metabolized | Compound NOT metabolized | Compound NOT metabolized | Compound NOT metabolized | Compound NOT metabolized | Compound NOT metabolized | Compound NOT metabolized | Compound NOT metabolized | Compound NOT metabolized | Compound NOT metabolized | Compound NOT metabolized | Bacterial Biotransformation [21]: Compound NOT metabolized; Bacterial Biotransformation [22]: Compound NOT metabolized; Bacterial Biotransformation [23]: Compound NOT metabolized; Bacterial Biotransformation [24]: Compound NOT metabolized; Bacterial Biotransformation [25]: Compound NOT metabolized; Bacterial Biotransformation [26]: Compound NOT metabolized; Bacterial Biotransformation [27]: Compound NOT metabolized; Bacterial Biotransformation [28]: Compound NOT metabolized; Bacterial Biotransformation [29]: Compound NOT metabolized; Bacterial Biotransformation [30]: Compound NOT metabolized |
| Cn1cnc([N+](=O)[O-])c1Sc1ncnc2nc[nH]c12 [AZATHIOPRINE] | Compound metabolized | Compound metabolized | Compound metabolized | Compound NOT metabolized | Compound metabolized | Compound metabolized | Compound metabolized | Compound metabolized | Compound NOT metabolized | Compound NOT metabolized | Compound NOT metabolized | Compound metabolized | Compound metabolized | Compound metabolized | Compound metabolized | Compound metabolized | Compound metabolized | Compound metabolized | Compound NOT metabolized | Compound metabolized | Bacterial Biotransformation [21]: Compound metabolized; Bacterial Biotransformation [22]: Compound NOT metabolized; Bacterial Biotransformation [23]: Compound NOT metabolized; Bacterial Biotransformation [24]: Compound NOT metabolized; Bacterial Biotransformation [25]: Compound NOT metabolized; Bacterial Biotransformation [26]: Compound metabolized; Bacterial Biotransformation [27]: Compound metabolized; Bacterial Biotransformation [28]: Compound NOT metabolized; Bacterial Biotransformation [29]: Compound NOT metabolized; Bacterial Biotransformation [30]: Compound NOT metabolized |
